From the supplement of paper PMC9103864

What was measured:
[1] = system: BMSC (primary human bone marrow mesenchymal stromal cells); assay: drug sensitivity score (DSS); higher = more sensitive
[2] = system: BMSC (primary human bone marrow mesenchymal stromal cells); assay: absolute EC50 for viability; higher = less sensitive

| Compound | drug sensitivity score [1] | absolute EC50 for viability [2] [nM] |
| --- | --- | --- |
| Cc1sc2c(c1C)C(c1ccc(Cl)cc1)=N[C@@H](CC(=O)Nc1ccc(O)cc1)c1nnc(C)n1-2 [Birabresib] | 4.9 | > 10000 |
| CC[C@H](NC(=O)[C@H](C)NC)C(=O)N1C[C@@H](O)C[C@H]1Cc1c(-c2[nH]c3cc(F)ccc3c2C[C@@H]2C[C@H](O)CN2C(=O)[C@H](CC)NC(=O)[C@H](C)NC)[nH]c2cc(F)ccc12 [Birinapant] | 0 | > 1000 |
| Cc1c(N)nc([C@H](CC(N)=O)NC[C@H](N)C(N)=O)nc1C(=O)N[C@H](C(=O)N[C@H](C)[C@@H](O)[C@H](C)C(=O)N[C@H](C(=O)NCCc1nc(-c2nc(C(=O)NCCC[S+](C)C)cs2)cs1)[C@@H](C)O)[C@@H](OC1OC(CO)C(O)C(O)C1OC1OC(CO)C(O)C(OC(N)=O)C1O)c1cnc[nH]1 (stereo partly specified) [Bleomycin] | 2.5 | > 10000 |
| CC(C)C[C@H](NC(=O)[C@H](Cc1ccccc1)NC(=O)c1cnccn1)B(O)O [Bortezomib] | 14.5 | 50.7 |
| COc1cc(Nc2c(C#N)cnc3cc(OCCCN4CCN(C)CC4)c(OC)cc23)c(Cl)cc1Cl [Bosutinib] | 8.8 | 1690 |
| COc1cc(N2CCC(N3CCN(C)CC3)CC2)ccc1Nc1ncc(Cl)c(Nc2ccccc2P(C)(C)=O)n1 [Brigatinib] | 2.8 | 944 |
| Cc1cc2c(F)c(Oc3ncnn4cc(OC[C@@H](C)O)c(C)c34)ccc2[nH]1 [Brivanib] | 0 | > 1000 |
| CCC/C=C/C=C/C(=O)O[C@H]1/C(=C/C(=O)OC)C[C@H]2C[C@H]([C@@H](C)O)OC(=O)C[C@H](O)C[C@@H]3C[C@H](OC(C)=O)C(C)(C)[C@](O)(C[C@@H]4C/C(=C/C(=O)OC)C[C@H](/C=C/C(C)(C)[C@]1(O)O2)O4)O3 [Bryostatin 1] | 0 | > 100 |
| Nc1cc(C(F)(F)F)c(-c2cc(N3CCOCC3)nc(N3CCOCC3)n2)cn1 [Buparlisib] | 7.8 | 2110 |
| Cc1nc2cccc(N)c2c(=O)n1C1CCC(=O)NC1=O (stereo unspecified) [CC122] | 0 | 9930 |
| CCN1C(=O)CNc2ncc(-c3ccc(-c4nc[nH]n4)nc3C)nc21 [CC-115] | 6.9 | 2860 |
| CO[C@H]1CC[C@H](N2C(=O)CNc3ncc(-c4ccc(C(C)(C)O)nc4)nc32)CC1 [CC-223] | 4.4 | 6040 |
| COc1cc(C)[nH]c(=O)c1CNC(=O)c1c(C)n([C@H](C)C2CCOCC2)c2ccccc12 [CPI-360] | 0 | > 10000 |
| Cc1noc2c1-c1ccccc1C(c1ccc(Cl)cc1)=N[C@H]2CC(N)=O [CPI-0610] | 0 | > 10000 |
| O=C(O)CCCCC(CCSCc1ccccc1)SCc1ccccc1 (stereo unspecified) [CPI-613] | 0 | > 10000 |
| CN(C)c1cc2c(cc1Sc1nc3c(N)nccc3n1CCNCC(C)(C)C)OCO2 [CUDC-305] | 8.8 | 1150 |
| COc1ccc(-c2nc(N3CCOCC3)c3sc(CN(C)c4ncc(C(=O)NO)cn4)cc3n2)cn1 [CUDC-907] | 24.6 | 64.9 |
| CO[C@H]1C(=O)[C@]2(C)[C@@H](OC)C[C@H]3OC[C@@]3(OC(C)=O)[C@H]2[C@H](OC(=O)c2ccccc2)[C@]2(O)C[C@H](OC(=O)[C@H](O)[C@@H](NC(=O)OC(C)(C)C)c3ccccc3)C(C)=C1C2(C)C [Cabazitaxel] | 7.2 | > 1000 |
| COc1cc2nccc(Oc3ccc(NC(=O)C4(C(=O)Nc5ccc(F)cc5)CC4)cc3)c2cc1OC [Cabozantinib] | 3.6 | > 1000 |
| C=CC(=O)Nc1cc2c(Nc3ccc(F)c(Cl)c3)ncnc2cc1OCCCN1CCOCC1 [Canertinib] | 3.7 | > 10000 |
| CCCCCOC(=O)Nc1nc(=O)n([C@@H]2O[C@H](C)[C@@H](O)[C@H]2O)cc1F [Capecitabine] | 0 | > 10000 |
| CNC(=O)c1ccc(-c2cnc3ncc(Cc4ccc5ncccc5c4)n3n2)cc1F [Capmatinib] | 0.5 | > 1000 |
| O=C(O)C1(C(=O)O)CCC1.[NH2-].[NH2-].[Pt+2] [Carboplatin] | 2.5 | > 100000 |
| CC(C)C[C@H](NC(=O)[C@H](CCc1ccccc1)NC(=O)CN1CCOCC1)C(=O)N[C@@H](Cc1ccccc1)C(=O)N[C@@H](CC(C)C)C(=O)[C@@]1(C)CO1 [Carfilzomib] | 19.7 | 18.7 |
| COc1cc2c(Oc3ccc4[nH]c(C)cc4c3F)ncnc2cc1OCCCN1CCCC1 [Cediranib] | 2.5 | > 1000 |
| Cc1ccc(-c2cc(C(F)(F)F)nn2-c2ccc(S(N)(=O)=O)cc2)cc1 [Celecoxib] | 0 | > 10000 |
| CCS(=O)(=O)N1CCN(c2ccc(Nc3ncc(C(N)=O)c(NC4CC4)n3)cc2)CC1 [Cerdulatinib] | 5.1 | > 10000 |

| Compound | drug sensitivity score [1] | absolute EC50 for viability [2] [nM] |
| --- | --- | --- |
| Cc1cc(Nc2ncc(Cl)c(Nc3ccccc3S(=O)(=O)C(C)C)n2)c(OC(C)C)cc1C1CCNCC1 [Ceritinib] | 1.3 | > 2500 |
| CCN(CC)CCCC(C)Nc1ccnc2cc(Cl)ccc12 (stereo unspecified) [Chloroquine] | 10.3 | 12800 |
| CC(C)[C@H]1C(=O)N[C@@H](CCCNC(=N)N)C(=O)NCC(=O)N[C@@H](CC(=O)O)C(=O)N[C@H](Cc2ccccc2)C(=O)N1C [Cilengitide] | 1.4 | > 10000 |
| N.N.[Cl][Pt][Cl] [Cisplatin] | 3.6 | 48500 |
| Nc1nc(Cl)nc2c1ncn2[C@H]1C[C@H](O)[C@@H](CO)O1 [Cladribine] | 2.3 | > 1000 |
| Nc1nc(Cl)nc2c1ncn2[C@@H]1O[C@H](CO)[C@@H](O)[C@@H]1F [Clofarabine] | 11.4 | 739 |
| CCN(CC)CCOc1ccc(C(=C(Cl)c2ccccc2)c2ccccc2)cc1 [Clomifene] | 0.9 | > 10000 |
| O=C(c1ccc(F)c(F)c1Nc1ccc(I)cc1F)N1CC(O)([C@@H]2CCCCN2)C1 [Cobimetinib] | 4.3 | > 1000 |
| COc1c(OCCCN2CCOCC2)ccc2c3n(c(=NC(=O)c4cnc(N)nc4)nc12)CCN3 [Copanlisib] | 13 | 126 |
| CC1(COc2ccc3c(c2)ncn3-c2ccc3cccc(N4CCC(N)CC4)c3n2)COC1 [Crenolanib] | 8.5 | 1840 |
| C[C@@H](Oc1cc(-c2cnn(C3CCNCC3)c2)cnc1N)c1c(Cl)ccc(F)c1Cl [Crizotinib] | 0.2 | > 1000 |
| Nc1ccn([C@@H]2O[C@H](CO)[C@@H](O)[C@@H]2O)c(=O)n1 [Cytarabine] | 1.2 | > 10000 |
| CC(C)(C)c1nc(-c2cccc(NS(=O)(=O)c3c(F)cccc3F)c2F)c(-c2ccnc(N)n2)s1 [Dabrafenib] | 0 | > 2500 |
| COc1cc2ncnc(Nc3ccc(F)c(Cl)c3)c2cc1NC(=O)/C=C/CN1CCCCC1 [Dacomitinib] | 2.2 | > 1000 |
| Cc1c2oc3c(C)ccc(C(=O)N[C@@H]4C(=O)N[C@H](C(C)C)C(=O)N5CCC[C@H]5C(=O)N(C)CC(=O)N(C)[C@@H](C(C)C)C(=O)O[C@@H]4C)c3nc-2c(C(=O)N[C@@H]2C(=O)N[C@H](C(C)C)C(=O)N3CCC[C@H]3C(=O)N(C)CC(=O)N(C)[C@@H](C(C)C)C(=O)O[C@@H]2C)c(N)c1=O [Dactinomycin] | 19 | 50.7 |
| Cn1c(=O)n(-c2ccc(C(C)(C)C#N)cc2)c2c3cc(-c4cnc5ccccc5c4)ccc3ncc21 [Dactolisib] | 10.7 | 114 |
| CO[C@@H](C(=O)N1Cc2[nH]nc(NC(=O)c3ccc(N4CCN(C)CC4)cc3)c2C1)c1ccccc1 [Danusertib] | 3.6 | > 10000 |
| O=C(/C=C/c1cccnc1)NCCCCC1CCN(C(=O)c2ccccc2)CC1 [Daporinad] | 0.2 | > 1000 |
| CCN(CC)CCN(Cc1ccc(-c2ccc(C(F)(F)F)cc2)cc1)C(=O)Cn1c(SCc2ccc(F)cc2)nc(=O)c2c1CCC2 [Darapladib] | 0 | > 1000 |
| Cc1nc(Nc2ncc(C(=O)Nc3c(C)cccc3Cl)s2)cc(N2CCN(CCO)CC2)n1 [Dasatinib] | 9.2 | 132 |
| COc1cccc2c1C(=O)c1c(O)c3c(c(O)c1C2=O)C[C@@](O)(C(C)=O)C[C@@H]3O[C@H]1C[C@H](N)[C@H](O)[C@H](C)O1 [Daunorubicin] | 5.6 | 356 |
| CC[C@@](C)(Nc1ccnc(-c2c[nH]c3ncccc23)n1)C(=O)NCC(F)(F)F [Decernotinib] | 0.4 | > 10000 |
| Nc1ncn([C@H]2C[C@H](O)[C@@H](CO)O2)c(=O)n1 [Decitabine] | 0 | > 10000 |
| CC(=O)N(O)CCCCCNC(=O)CCC(=O)N(O)CCCCCNC(=O)CCC(=O)N(O)CCCCCN [Deferoxamine] | 0 | > 10000 |
| C[C@@H]1C[C@H]2[C@@H]3CCC4=CC(=O)C=C[C@]4(C)[C@@]3(F)[C@@H](O)C[C@]2(C)[C@@]1(O)C(=O)CO [Dexamethasone] | 0 | > 10000 |
| C[C@H]1O[C@@H](O[C@H]2[C@@H](O)C[C@H](O[C@H]3[C@@H](O)C[C@H](O[C@H]4CC[C@@]5(C)[C@H](CC[C@@H]6[C@@H]5C[C@@H](O)[C@]5(C)[C@@H](C7=CC(=O)OC7)CC[C@]65O)C4)O[C@@H]3C)O[C@@H]2C)C[C@H](O)[C@@H]1O [Digoxin] | 13.7 | 52.9 |
